Where two headings read alike, the source gives them in different places.
Tests used:
[1] = tested on: influenza virus A/Puerto Rico/8/34 (H1N1); test: microbe, parasite or virus in culture; type: cell-based; details: H1N1, MDCK, read-out: IC50 H1N1
rVSV-ΔG-EboV-GP = test: microbe, parasite or virus in culture; type: cell-based, Ebola pseudotype viruses; details: Zaire ebolavirus, HEK-293T, read-out: IC50 EboV-GP
rVSV-ΔG-MarV-GP = test: organism not typed; type: cell-based, Marburg pseudotype viruses; details: HEK-293T, read-out: IC50 MarV-GP
rVSV-ΔG-G = test: microbe, parasite or virus in culture; type: cell-based; details: Vesicular stomatitis virus, HEK-293T, read-out: IC50 VSV-G
EBOV (strain Zaire) = test: microbe, parasite or virus in culture; type: cell-based, Ebola virus (EBOV); details: for IC50: read-out: IC50 EBOV
rVSV-ΔG-Gn-Gc = test: microbe, parasite or virus in culture; type: cell-based, Hantaan virus strain 76–118; details: Orthohantavirus hantanense, HEK-293T, read-out: IC50 rVSV-ΔG-Gn-Gc
in vitro [2] = details: dog
in vitro [3] = details: human
in vitro [4] = details: African green monkey
[5] = Cytotoxicity in HEK293T cells (Table 5); details: human
in vitro [6] = details: African green monkey; remark: listed apart in the source
[7] = tested on: vaccinia virus (strain Copenhagen); test: microbe, parasite or virus in culture; type: cell-based; details: Orthopoxvirus vaccinia, Vero, read-out: IC50 VV
[8] = tested on: influenza virus A/Puerto Rico/8/34 (H1N1); details: cited from earlier work
[9] = tested on: Ebola virus (EBOV) (strain Zaire); details: cited from earlier work
[10] = tested on: Marburg virus (MARV) (strain Popp); details: cited from earlier work
vaccinia virus (VV) = details: cited from earlier work

SMILES	IC50 [1] [µM]	IC50 (rVSV-ΔG-EboV-GP) [µM]	IC50 (rVSV-ΔG-MarV-GP) [µM]	CC50 (in vitro [2]) [µM]	CC50 (in vitro [3]) [µM]	CC50 (in vitro [6]) [µM]	other results
CC1(C)[C@@H]2CC[C@@]1(C)[C@H](OCCN1CCCC1)C2 (racemic) [Compound 2a, (±)-1-(2-(1,7,7-Trimethylbicyclo(2.2.1)heptan-2-yloxy)ethyl)pyrrolidine]	45.3 ± 5.2	0.12 ± 0.04	73.6 ± 1.9	> 1190	497 ± 8		IC50 (rVSV-ΔG-G): 123 ± 4 µM; IC50 (EBOV (strain Zaire); Zaire ebolavirus, Vero): 18.3 ± 3.1 µM; IC50 (rVSV-ΔG-Gn-Gc): 9.1 ± 1.2 µM; CC50 (in vitro [4]): 231 ± 16.5 µM; CC50 [5]: 358 ± 27.8 µM
CC1(C)[C@@H]2CC[C@@]1(C)[C@H](OCCN1CCCCC1)C2 (racemic) [Compound 3a, (±)-1-(2-(1,7,7-Trimethylbicyclo(2.2.1)heptan-2-yloxy)ethyl)piperidine]	64.8 ± 5.9	6.3 ± 0.3		> 1130	942 ± 18.8		IC50 (rVSV-ΔG-G): 942 ± 18.8 µM; IC50 (EBOV (strain Zaire); Zaire ebolavirus, Vero): 15.2 ± 2.1 µM; IC50 (rVSV-ΔG-Gn-Gc): 5 ± 0.8 µM; CC50 (in vitro [4]): 55.9 ± 12.2 µM; CC50 [5]: 151 ± 18.8 µM
CC1(C)[C@@H]2CC[C@@]1(C)[C@H](OCCCN1CCCCC1)C2 (racemic) [Compound 3b, (±)-1-(3-(1,7,7-Trimethylbicyclo(2.2.1)heptan-2-yloxy)propyl)piperidine]	347 ± 41.1	473 ± 11.4	170 ± 3.8	950 ± 52.5	2120 ± 49.2	140 ± 8.7	IC50 (rVSV-ΔG-G): 946 ± 22.7 µM
CC1CCN(CCO[C@@H]2C[C@H]3CC[C@]2(C)C3(C)C)CC1 (racemic) [Compound 4a, (±)-4-Methyl-1-(2-(1,7,7-trimethylbicyclo(2.2.1)]heptan-2-yloxy)ethyl)piperidine]	37.9 ± 5.6	1.3 ± 0.1	60.8 ± 1.8	> 1070	447 ± 10.7		IC50 (rVSV-ΔG-G): 111 ± 3.6 µM; IC50 EBOV (EBOV (strain Zaire)): did not show antiviral activity
CC1CCN(CCCO[C@@H]2C[C@H]3CC[C@]2(C)C3(C)C)CC1 (racemic) [Compound 4b, (±)-4-Methyl-1-(3-(1,7,7-trimethylbicyclo(2.2.1)heptan-2-yloxy)propyl)piperidine]	69.7 ± 8.4		96.1 ± 3.4	491 ± 32.2	141 ± 3.4	40.9 ± 2.7	
CN1CCN(CCO[C@@H]2C[C@H]3CC[C@]2(C)C3(C)C)CC1 (racemic) [Compound 5a, (±)-1-Methyl-4-(2-(1,7,7-trimethylbicyclo(2.2.1)heptan-2-yloxy)ethyl)piperazine]	13.2 ± 2		85.6 ± 1.8	28.5 ± 1.2	653 ± 14.3	100 ± 6.1	
CN1CCN(CCCO[C@@H]2C[C@H]3CC[C@]2(C)C3(C)C)CC1 (racemic) [Compound 5b, (±)-1-Methyl-4-(3-(1,7,7-trimethylbicyclo(2.2.1)heptan-2-yloxy)propyl)piperazine]	> 37.4			51 ± 4.1	109 ± 3.4	64.2 ± 3.1	
CC1(C)[C@@H]2CC[C@@]1(C)[C@H](OCCN1CCN(Cc3ccccc3)CC1)C2 (racemic) [Compound 6a, (±)-1-Benzyl-4-(2-(1,7,7-trimethylbicyclo(2.2.1)heptan-2-yloxy)ethyl)piperazine]	3.4 ± 0.5			33.7 ± 2.8	575 ± 11.2	14 ± 1.7	
CC1(C)[C@@H]2CC[C@@]1(C)[C@H](OCCCN1CCN(Cc3ccccc3)CC1)C2 (racemic) [Compound 6b, (±)-1-Benzyl-4-(3-(1,7,7-trimethylbicyclo(2.2.1)heptan-2-yloxy)propyl)piperazine]	> 8	67.5 ± 2.7	124 ± 2.7	10.8 ± 0.8	148 ± 5.4	21.3 ± 2.2	
CC1(C)[C@@H]2CC[C@@]1(C)[C@H](OCCN1CCOCC1)C2 (racemic) [Compound 7a, (±)-4-(2-(1,7,7-Trimethylbicyclo(2.2.1)heptan-2-yloxy)ethyl)morpholine]	252 ± 31.1	0.6 ± 0.2	150 ± 3.7	385 ± 19.7	860 ± 22.4		IC50 (rVSV-ΔG-G): 935 ± 26.2 µM; IC50 (EBOV (strain Zaire); Zaire ebolavirus, Vero): 5.63 µM; IC50 (EBOV (strain Zaire)): 5.6 ± 0.9 µM; IC50 (rVSV-ΔG-Gn-Gc): 14.8 ± 1.9 µM; CC50 [5]: 1160 ± 56.1 µM
CC1(C)[C@@H]2CC[C@@]1(C)[C@H](OCCCN1CCOCC1)C2 (racemic) [Compound 7b, (±)-4-(3-(1,7,7-trimethylbicyclo(2.2.1)heptan-2-yloxy)propyl)morpholine]	24.2 ± 3.1			562 ± 48.2	1440 ± 28.4	174 ± 11.9	
CC1(C)[C@@H]2CC[C@@]1(C)[C@H](OCCN1CCCCCC1)C2 (racemic) [Compound 8a, (±)-1-(2-(1,7,7-Trimethylbicyclo(2.2.1)heptan-2-yloxy)ethyl)azepane]	35.3 ± 5	112 ± 3.6	90.2 ± 3.6	50.5 ± 4.5	721 ± 14.4	19.1 ± 2.5	IC50 (rVSV-ΔG-G): 361 ± 10.8 µM
CC1(C)[C@@H]2CC[C@@]1(C)[C@H](OCCCN1CCCCCC1)C2 (racemic) [Compound 8b, (±)-1-(3-((1,7,7-Trimethylbicyclo(2.2.1)heptan-2-yloxy)propyl)azepane]	320 ± 36.9			374 ± 22.8	704 ± 10.3	23.7 ± 2.7	
Nc1ccn(C[C@@H](CO)OCP(=O)(O)O)c(=O)n1 [Cidofovir, reference compound]						475 ± 30.1	IC50 [7]: 40 ± 1.2 µM
CC1(C)[C@H]2CC[C@]1(C)[C@H](OC(=O)CCN1CCCCC1)C2 [Ia]							IC50 [8]: 7.8 µM; IC50 [9]: 47.5 µM; IC50 [10]: 3700 nM; IC50 (vaccinia virus (VV)): 121 µM
CC1CCN(CCC(=O)O[C@@H]2C[C@@H]3CC[C@@]2(C)C3(C)C)CC1 [Ib]							IC50 [8]: 15.3 µM; IC50 [9]: 54.3 µM; IC50 [10]: 2200 nM
CN1CCN(CCC(=O)O[C@@H]2C[C@@H]3CC[C@@]2(C)C3(C)C)CC1 [Ic]							IC50 [8]: 1.9 µM; IC50 (vaccinia virus (VV)): 64.8 µM
CC1(C)[C@H]2CC[C@]1(C)[C@H](OC(=O)CCN1CCOCC1)C2 [Id]							IC50 [8]: 12.2 µM; IC50 (vaccinia virus (VV)): 3.4 µM
NC(=O)c1ncn([C@@H]2O[C@H](CO)[C@@H](O)[C@H]2O)n1 [Ribavirin, reference compound]	24.6 ± 3.7			> 2000			
CC(N)C12CC3CC(CC(C3)C1)C2 (stereo not drawn) [Rimantadine, reference compound]	67 ± 4.9			335 ± 27			
O=C(NN1C(=O)[C@@H]2[C@@H]3C=C[C@@H]([C@H]4C[C@@H]34)[C@@H]2C1=O)c1ccc(C(F)(F)F)cc1 [ST-246, reference compound]						1280 ± 202	IC50 [7]: 0.01 ± 0.003 µM
CN[C@H]1CC[C@@H](c2ccc(Cl)c(Cl)c2)c2ccccc21 [Sertraline, sertraline, reference compound]					408 ± 35.9		
